Assay results from the NIST ThermoML archive (doi:10.1021/acs.jced.7b00002).
± gives the expanded uncertainty stated by the source.

Tests used:
[1] = 97.6 kPa, Liquid; for viscosity: Capillary tube (Ostwald / Ubbelohde) method; for mass density: Vibrating tube method
[2] = xn = mol fraction of the nth substance listed; details: 97.6 kPa, Liquid, x2 = 0; for viscosity: Capillary tube (Ostwald / Ubbelohde) method; for mass density: Vibrating tube method

CN(C)C=O [dimethylformamide]
[1]
Details | mass density [kg/m3] | viscosity [mPa·s]
303.15 K | 939.18 ± 1.9 | 0.77
308.15 K | 934.41 ± 1.9 | 0.72
313.15 K | 929.64 ± 1.9 | 0.68
318.15 K | 924.86 ± 1.9 | 0.65
323.15 K | 920.07 ± 1.9 | 0.62
328.15 K | 915.26 ± 1.8 | 0.59
333.15 K | 910.44 ± 1.8 | 0.56
338.15 K | 905.6 ± 1.8 | 0.54
343.15 K | 900.74 ± 1.8 | 0.51
348.15 K | 895.87 ± 1.8 | 0.49
353.15 K | 890.98 ± 1.8 | 0.47

CC(=O)N(C)C [N,N-dimethylethanamide] + CCCCCCCC[n+]1ccn(C)c1.[Cl-]
[2]
Details | mass density [kg/m3] | viscosity [mPa·s]
303.15 K | 931.85 ± 2 | 0.89
308.15 K | 927.26 ± 2 | 0.83
313.15 K | 922.66 ± 2 | 0.78
318.15 K | 918.06 ± 2 | 0.74
323.15 K | 913.44 ± 1.9 | 0.7
328.15 K | 908.81 ± 1.9 | 0.66
333.15 K | 904.16 ± 1.9 | 0.63
338.15 K | 899.53 ± 1.9 | 0.6
343.15 K | 894.87 ± 1.9 | 0.57
348.15 K | 890.19 ± 1.9 | 0.54
353.15 K | 885.51 ± 1.9 | 0.52

CCCCCCCC[n+]1ccn(C)c1.[Cl-] [1-methyl-3-octylimidazolium chloride]
[1]
Details | mass density [kg/m3] | viscosity [mPa·s]
303.15 K | 1006.2 ± 2.2 | 7339.7
308.15 K | 1003.33 ± 2.1 | 4272.9
313.15 K | 1000.48 ± 2.1 | 2766.9
318.15 K | 997.64 ± 2.1 | 1788.6
323.15 K | 994.82 ± 2.1 | 1198.7
328.15 K | 992 ± 2.1 | 828.3
333.15 K | 989.17 ± 2.1 | 588.69
338.15 K | 986.38 ± 2.1 | 426.28
343.15 K | 983.63 ± 2.1 | 316.66
348.15 K | 980.88 ± 2.1 | 237.14
353.15 K | 978.13 ± 2.1 | 181.41

C[S+](C)[O-] [dimethyl sulfoxide]
[1]
Details | mass density [kg/m3] | viscosity [mPa·s]
303.15 K | 1090.29 ± 2.2 | 1.8
308.15 K | 1085.28 ± 2.2 | 1.66
313.15 K | 1080.3 ± 2.2 | 1.53
318.15 K | 1075.31 ± 2.2 | 1.41
323.15 K | 1070.32 ± 2.2 | 1.3
328.15 K | 1065.33 ± 2.1 | 1.21
333.15 K | 1060.34 ± 2.1 | 1.13
338.15 K | 1055.34 ± 2.1 | 1.06
343.15 K | 1050.35 ± 2.1 | 0.99
348.15 K | 1045.34 ± 2.1 | 0.93
353.15 K | 1040.33 ± 2.1 | 0.88

CC(=O)N(C)C [N,N-dimethylethanamide]
[1]
Details | mass density [kg/m3] | viscosity [mPa·s]
303.15 K | 931.85 ± 2 | 0.89
308.15 K | 927.26 ± 2 | 0.83
313.15 K | 922.66 ± 2 | 0.78
318.15 K | 918.06 ± 2 | 0.74
323.15 K | 913.44 ± 1.9 | 0.7
328.15 K | 908.81 ± 1.9 | 0.66
333.15 K | 904.16 ± 1.9 | 0.63
338.15 K | 899.53 ± 1.9 | 0.6
343.15 K | 894.87 ± 1.9 | 0.57
348.15 K | 890.19 ± 1.9 | 0.54
353.15 K | 885.51 ± 1.9 | 0.52

c1ccncc1 [pyridine] + CCCCCCCC[n+]1ccn(C)c1.[Cl-]
[2]
Details | mass density [kg/m3] | viscosity [mPa·s]
303.15 K | 973.09 ± 1.9 | 0.84
308.15 K | 968.06 ± 1.9 | 0.79
313.15 K | 963.02 ± 1.9 | 0.74
318.15 K | 957.97 ± 1.9 | 0.7
323.15 K | 952.9 ± 1.9 | 0.66
328.15 K | 947.82 ± 1.9 | 0.62
333.15 K | 942.72 ± 1.9 | 0.59
338.15 K | 937.6 ± 1.9 | 0.56
343.15 K | 932.46 ± 1.9 | 0.53
348.15 K | 927.3 ± 1.9 | 0.51
353.15 K | 922.12 ± 1.9 | 0.48

CN(C)C=O [dimethylformamide] + CCCCCCCC[n+]1ccn(C)c1.[Cl-]
[2]
Details | mass density [kg/m3] | viscosity [mPa·s]
303.15 K | 939.18 ± 1.9 | 0.77
308.15 K | 934.41 ± 1.9 | 0.72
313.15 K | 929.64 ± 1.9 | 0.68
318.15 K | 924.86 ± 1.9 | 0.65
323.15 K | 920.07 ± 1.9 | 0.62
328.15 K | 915.26 ± 1.8 | 0.59
333.15 K | 910.44 ± 1.8 | 0.56
338.15 K | 905.6 ± 1.8 | 0.54
343.15 K | 900.74 ± 1.8 | 0.51
348.15 K | 895.87 ± 1.8 | 0.49
353.15 K | 890.98 ± 1.8 | 0.47

C[S+](C)[O-] [dimethyl sulfoxide] + CCCCCCCC[n+]1ccn(C)c1.[Cl-]
[2]
Details | mass density [kg/m3] | viscosity [mPa·s]
303.15 K | 1090.29 ± 2.2 | 1.8
308.15 K | 1085.28 ± 2.2 | 1.66
313.15 K | 1080.3 ± 2.2 | 1.53
318.15 K | 1075.31 ± 2.2 | 1.41
323.15 K | 1070.32 ± 2.2 | 1.3
328.15 K | 1065.33 ± 2.1 | 1.21
333.15 K | 1060.34 ± 2.1 | 1.13
338.15 K | 1055.34 ± 2.1 | 1.06
343.15 K | 1050.35 ± 2.1 | 0.99
348.15 K | 1045.34 ± 2.1 | 0.93
353.15 K | 1040.33 ± 2.1 | 0.88

c1ccncc1 [pyridine]
[1]
Details | mass density [kg/m3] | viscosity [mPa·s]
303.15 K | 973.09 ± 1.9 | 0.84
308.15 K | 968.06 ± 1.9 | 0.79
313.15 K | 963.02 ± 1.9 | 0.74
318.15 K | 957.97 ± 1.9 | 0.7
323.15 K | 952.9 ± 1.9 | 0.66
328.15 K | 947.82 ± 1.9 | 0.62
333.15 K | 942.72 ± 1.9 | 0.59
338.15 K | 937.6 ± 1.9 | 0.56
343.15 K | 932.46 ± 1.9 | 0.53
348.15 K | 927.3 ± 1.9 | 0.51
353.15 K | 922.12 ± 1.9 | 0.48
